The assay addresses T1, hA3G (human APOBEC3G) (Homo sapiens, UniProt Q9HC16).
T1 construct: 10067; biotinylated with NHS-biotin 3:1
As to the kind of experiment: biolayer interferometry (Octet RED, super streptavidin sensors). The format is binding. The following applies: biotinylated hA3G immobilised; 5% DMSO; kinetic constant from kon/koff. In general terms: In BLI a coated tip is dipped into the sample, and binding shifts an interference pattern.

T1 sequence (Q9HC16 whole entry): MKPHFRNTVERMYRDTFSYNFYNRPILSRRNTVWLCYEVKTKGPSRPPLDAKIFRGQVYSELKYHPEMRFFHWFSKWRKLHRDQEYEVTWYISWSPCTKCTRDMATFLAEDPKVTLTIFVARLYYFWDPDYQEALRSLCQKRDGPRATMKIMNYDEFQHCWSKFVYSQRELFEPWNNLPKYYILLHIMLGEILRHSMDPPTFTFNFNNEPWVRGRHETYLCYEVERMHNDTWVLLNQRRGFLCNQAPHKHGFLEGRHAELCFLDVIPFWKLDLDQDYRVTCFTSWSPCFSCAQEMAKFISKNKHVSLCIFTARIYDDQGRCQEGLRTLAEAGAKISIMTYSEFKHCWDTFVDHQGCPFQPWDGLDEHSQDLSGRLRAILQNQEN

In the case of IMB-301, the “Ligand (hA3G) / KD (M)” value turned out to be 1.56E − 05 M.

The record behind these values is publication PMC5966509 (Scientific Reports, 2018).
